Measurements taken from patent US8618086B2, “Compositions and methods for treating hair loss using C16-C20 aromatic tetrahydro prostaglandins” (Duke University, priority 2000, dated 2013).

Tests used:
[1] = system: C3H mice (conversion from telogen to anagen, skin color grade); experiment: Telogen Conversion Assay; assay type: in vivo; settings: topical; for Average Grades, 23 Days: visual skin color grade 0 (whitish) to 4 (dark blue, full anagen), average of 7 mice after 23 days
Protocol: PGF's are tested for their potential to grow hair using the Telogen Conversion Assay. The Telogen Conversion Assay measures the potential of a PGF to convert mice in the resting stage of the hair growth cycle (“telogen”), to the growth stage of the hair growth cycle (“anagen”).
Without intending to be limited by theory, there are three principal phases of the hair growth cycle: anagen, catagen, and telogen. It is believed that there is a longer telogen period in C3H mice (Harlan Sprague Dawley, Inc., Indianapolis, Ind.) from approximately 40 days of age until about 75 days of age, when hair growth is synchronized. It is believed that after 75 days of age, hair growth is no longer synchronized. Wherein about 40 day-old mice with dark fur (brown or black) are used in hair growth experiments, melanogenesis occurs along with hair (fur) growth wherein the topical application of hair growth inducers are evaluated. The Telogen Conversion Assay herein is used to screen PGF's for potential hair growth by measuring melanogenesis.
Three groups of 44 day-old C3H mice are used: a vehicle control group, a positive control group, and a test PGF group, wherein the test PGF group is administered a PGF used in the method of this invention. The length of the assay is 24 days with 15 treatment days (wherein the treatment days occur Mondays through Fridays). Day 1 is the first day of treatment. Typical dosage concentrations are set forth in Table 1, however the skilled artisan will readily understand that such concentrations may be modified.
The mice are treated topically Monday through Friday on their lower back (base of tail to the lower rib). A pipettor and tip are used to deliver 400 μL to each mouse's back. The 400 μL application is applied slowly while moving hair on the mouse to allow the application to reach the skin.
While each treatment is being applied to the mouse topically, a visual grade of from 0 to 4 will be given to the skin color in the application area of each animal. As a mouse converts from telogen to anagen, its skin color will become more bluish-black.

[2] = target: T1, hFP receptor (hFP membrane from transfected COS-7 cells) (Homo sapiens, UniProt P43088); experiment: Radioligand Binding Assay; settings: competition with (3H) PGF2 on hFP membrane; read-out: IC50 the PGF
T1 construct: expressed in transfected cells; host or cells: COS-7 cells (transient transfection, LipofectAMINE); membrane preparation
Protocol: IC50 of a PGF can be determined relative to PGF2α using the Radioligand Binding Assay. As a control, the IC50 for PGF2α itself should be no lower than 1.0 nM and no higher than 5.0 nM.
In this assay, COS-7 cells are transiently transfected with the hFP recombinant plasmid using LipofectAMINE Reagent. Forty-eight hours later, the transfected cells are washed with Hank's Balanced Salt Solution (HBSS, without CaCl2, MgCl2, MgSO4, or phenol red). The cells are detached with versene, and HBSS is added. The mixture is centrifuged at 200 g for 10 minutes, at 4° C. to pellet the cells. The pellet is resuspended in Phosphate-Buffered Saline-EDTA buffer (PBS; 1 mM EDTA; pH 7.4; 4° C.). The cells are disrupted by nitrogen cavitation (Parr model 4639), at 800 psi, for 15 minutes at 4° C. The mixture is centrifuged at 1000 g for 10 minutes at 4° C. The supernatant is centrifuged at 100,000 g for 60 minutes at 4° C. The pellet is resuspended to 1 mg protein/mL TME buffer (50 mM Tris; 10 mM MgCl2; 1 mM EDTA; pH 6.0; 4° C.) based on protein levels measured using the Pierce BCA Protein Assay kit. The homogenate is mixed for 10 seconds using a Kinematica POLYTRON® (available from KINEMATICA AG, Luzernerstrasse 147A CH-6014 Littau, Switzerland). The membrane preparations are then stored at −80° C., until thawed for assay use.
The receptor competition binding assays are developed in a 96 well format. Each well contains […] of hFP membrane, 5 nM (3H) PGF2, and the various competing compounds in a total volume of […]. The plates are incubated at 23° C. for 1 hour. The incubation is terminated by rapid filtration using the Packard Filtermate 196 harvester through Packard UNIFILTER® GF/B filters (available from Packard Instrument Co., Inc. of Downers Grove Ill.) pre-wetted with TME buffer. The filter is washed four times with TME buffer. […] The plates are read on a Packard TOPCOUNT® Microplate Scintillation Counter (also available from Packard Instrument Co., Inc.)

T1 sequence (P43088 whole entry): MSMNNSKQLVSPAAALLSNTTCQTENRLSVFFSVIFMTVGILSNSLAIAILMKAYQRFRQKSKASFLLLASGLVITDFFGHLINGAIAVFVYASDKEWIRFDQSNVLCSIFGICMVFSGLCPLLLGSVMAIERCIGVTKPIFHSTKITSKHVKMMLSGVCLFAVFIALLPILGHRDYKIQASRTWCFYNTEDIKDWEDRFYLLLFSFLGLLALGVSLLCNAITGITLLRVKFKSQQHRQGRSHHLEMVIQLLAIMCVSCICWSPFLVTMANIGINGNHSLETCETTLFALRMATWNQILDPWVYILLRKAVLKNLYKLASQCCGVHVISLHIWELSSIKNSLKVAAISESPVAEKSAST

Row | IC50 [2] [nM] | Compound | hair growth (result in words) [1] | Average Grades, 23 Days [1] | Average Grades, 25 Days ([1]; visual skin color grade 0 to 4, average of 7 mice after 25 days) | Average Grades, 26 Days ([1]; visual skin color grade 0 to 4, average of 7 mice after 26 days)
1 | 7 | O=C(O)CCCCCC[C@@H]1[C@@H](CCC(O)CSc2cccc(F)c2)[C@H](O)C[C@@H]1O (stereo partly drawn) [Example 3-1] |  |  |  | 
2 | 10 | O=C(O)CCCCCC[C@@H]1[C@@H](CCC(O)CSc2ccccc2F)[C@H](O)C[C@@H]1O (stereo partly drawn) [Example 3-2] |  |  |  | 
3 | 24 | CC(O)(CC[C@@H]1[C@@H](CCCCCCC(=O)O)[C@@H](O)C[C@H]1O)CSc1ccccc1 (stereo partly drawn) [Example 3-3] |  |  |  | 

Further lines, the compound ahead of its results:

Row | Compound | IC50 [2] [nM] | hair growth (result in words) [1] | Average Grades, 23 Days [1] | Average Grades, 25 Days ([1]; visual skin color grade 0 to 4, average of 7 mice after 25 days) | Average Grades, 26 Days ([1]; visual skin color grade 0 to 4, average of 7 mice after 26 days)
4 | CC(C)OC(=O)CCCCCC[C@@H]1[C@@H](CCC(O)CSc2ccccc2)[C@H](O)C[C@@H]1O (stereo partly drawn) [Example 1] |  | grew hair | 0.4 | 0.1 | 0.7
5 | COC(=O)CCCCCC[C@@H]1[C@@H](CCC(O)CSc2ccccc2Br)[C@H](O)C[C@@H]1O (stereo partly drawn) [Example 2] |  | grew hair | 0.1 |  | 
